Source: US6452008B2, “Pyridone derivatives and process for preparing the same” (Sumitomo Pharmaceuticals Company, Limited, priority 1998, dated 2002)

Target: T1, ACAT (Rattus norvegicus, UniProt O70536)
T1 construct: The rat peritoneal-derived macrophage was prepared; endogenous in cells; host or cells: rat peritoneal macrophages (primary)
T1 sequence (O70536 1-545): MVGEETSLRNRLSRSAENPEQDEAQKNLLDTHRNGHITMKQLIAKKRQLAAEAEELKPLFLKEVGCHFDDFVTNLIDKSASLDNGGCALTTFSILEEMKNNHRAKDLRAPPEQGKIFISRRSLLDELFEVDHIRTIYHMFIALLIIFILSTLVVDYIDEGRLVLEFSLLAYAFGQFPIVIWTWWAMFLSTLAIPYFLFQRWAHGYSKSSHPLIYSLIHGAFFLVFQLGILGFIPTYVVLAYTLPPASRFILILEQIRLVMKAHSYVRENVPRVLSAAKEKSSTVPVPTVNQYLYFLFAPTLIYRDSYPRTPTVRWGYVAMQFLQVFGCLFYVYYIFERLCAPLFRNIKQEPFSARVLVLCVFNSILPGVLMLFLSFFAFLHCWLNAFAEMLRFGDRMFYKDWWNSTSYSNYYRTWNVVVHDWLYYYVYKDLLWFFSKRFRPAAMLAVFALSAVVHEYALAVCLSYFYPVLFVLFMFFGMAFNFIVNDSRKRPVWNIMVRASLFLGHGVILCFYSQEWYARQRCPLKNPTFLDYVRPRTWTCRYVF
Test: Assay of ACAT inhibitory activity in the macrophage derived from rat peritoneal
Format: cell-based
Settings: [9,10-3H]oleic acid, exogenous cholesterol in liposome
Procedure: 2. Assay of ACAT inhibitory activity in the macrophage derived from rat peritoneal:
The rat peritoneal-derived macrophage was prepared according to the method disclosed in the literature: Biochimica et Biophysica Acta, 1126, 73-80, 1992. The ACAT activity was determined by a modified method of the method disclosed in the above literature: Biochimica et Biophysica Acta, 1126, 73-80, 1992, i.e., using radioactive [9,10-^3H]oleic acid and exogenous cholesterol contained in the liposome which was re-constituted according to the method disclosed in the literature: Biochimica et Biophysica Acta, 1213, 127-134, 1994, and calculated from the radioactivity of the labeled cholesterolyl oleate.

IC50: 16 nM
Compound: CCCCn1cc(C)c(-c2cc(C#CCN(CC)CC)ccc2OC)c(NC(=O)Nc2c(C(C)C)cccc2C(C)C)c1=O [Example 18, N-[1-butyl-2-oxo-4-[5-{3-(diethylamino)-1-propynyl}-2-methoxy]phenyl-5-methyl-1,2-dihydropyridin-3-yl]-N′-(2,6-diisopropylphenyl) urea]
